Consider 24 compounds from US20020173468A1, “MODIFIED CYTOSTATIC AGENTS” (priority 1996, published 2002).

What all share (assay type): cell-based
The subject of experiment [1] is SW 480 human colonic tumour cell line. In words: Growth inhibition test (MTT) for cytotoxic properties, SW 480. Particulars: SW 480 cells. The protocol:
(§1) 1. Growth Inhibition Test for the Determination of Cytotoxic Properties
(§2) They were then trypsinized and taken up in RPMI plus 10% FCS to give a cell count of 50,000 cells/ml. 100 μl of cell suspension/well were added to a 96 microwell plate and incubated for 1 day at 37° C. in a CO2 incubator. A further 100 μl of RPMI medium and 1 μl of DMSO were then added with the test substances. The growth was checked after day 3 and day 6. To do this, 40 μl of MTT solution (3-(4,5-dimethylthiazol-2-yl)-2,5-diphenyl-tetrazolin bromide) were added to each microwell at a starting concentration of 5 mg/ml of H2O. Incubation was carried out at 37° C. for 5 hours in the CO2 incubator. The medium was then aspirated and 100 μl of i-propanol/well were added. After shaking for 30 min with 100 μl of H2O, the extinction was measured at 540 nm using a Titertek Multiskan MCC/340 (flow).
(§3) The cytotoxic action is indicated in Table 1 as an IC50 value in each case for the SW 480 and HT 29 and B16F10 cell lines: […]

Experiment [2] relates to HT 29 human colonic tumour cell line. In words: Growth inhibition test (MTT) for cytotoxic properties, HT 29. The following applies: HT 29 cells. As for the experimental part: as §1, §2, §3
Experiment [3] concerns B16F10 mouse melanoma cell line. In words: Growth inhibition test (MTT) for cytotoxic properties, B16F10. Particulars: B16F10 cells. As for the experimental part:
as §1, §2, §3

Counter-ions that a name gives are not always drawn.

One may read the IC50 as the concentration that inhibits the measured activity by half. Low readings indicate higher potency, high ones lower potency. As to `CC(NC(=S)Nc1ccc(O)cc1)C(=O)NC1C=CCC2CN(c3c(F)cc4c(=O)c(C(=O)O)cn(C5CC5)c4c3Cl)CC21` (racemic) [2.1), N-[N-(4-Hydroxy-phenylamino-thiocarbonyl)-alanyl]-quinolone-a], the IC50 was 20 µM in experiment [1], 9 µM in experiment [2] and 9 µM in experiment [3].

As for `CC(NC(=S)Nc1ccc(O)cc1)C(=O)NC1C=CCC2CN(c3c(F)cc4c(=O)c(C(=O)O)cn(C5CC5)c4c3Cl)CC21` (racemic) [2.2), N-[N-(4-Hydroxy-phenylamino-thiocarbonyl)-D-alanyl]-quinolone-a], the results for the IC50 in experiment [1], in experiment [2] and in experiment [3] were 15 µM, 6 µM and 4 µM, respectively.

`NCCC(NC(=S)Nc1ccc(O)cc1)C(=O)NC1C=CCC2CN(c3c(F)cc4c(=O)c(C(=O)O)cn(C5CC5)c4c3Cl)CC21` (racemic) [2.3), N-[N^α-(4-Hydroxy-phenylamino-thiocarbonyl)-α,γ-diaminobutyryl]-quinolone-a, hydrochloride]: the IC50 in experiment [1] was 0.9 µM; in experiment [2], 0.7 µM; in experiment [3] it was 0.2 µM.

In the case of `O=C(O)c1cn(C2CC2)c2c(Cl)c(N3CC4CC=CC(NC(=O)C(CCCCNC(=S)Nc5ccc(O)cc5)NC(=S)Nc5ccc(O)cc5)C4C3)c(F)cc2c1=O` (racemic) [2.5), N-[N^α,N^ε-bis-(4-Hydroxy-phenylamino-thiocarbonyl)-D-lysyl]-quinolone-a], the results for the IC50 in experiment [1], in experiment [2] and in experiment [3] were 200 µM, above 200 µM and 200 µM, respectively.

`NCCCC(NC(=S)Nc1ccc(O)cc1)C(=O)NC1C=CCC2CN(c3c(F)cc4c(=O)c(C(=O)O)cn(C5CC5)c4c3Cl)CC21` (racemic) [2.6), N-[N^α-(4-Hydroxy-phenylamino-thiocarbonyl)-ornithyl]-quinolone-a, hydrochloride]: the IC50 came out at 0.2 µM in experiment [1], 0.3 µM in experiment [2] and 0.06 µM in experiment [3].

Regarding `NCCCCC(NC(=S)Nc1ccc(N=C=S)cc1)C(=O)NC1C=CCC2CN(c3c(F)cc4c(=O)c(C(=O)O)cn(C5CC5)c4c3Cl)CC21` (racemic) [2.8), N-[N^α-(4-Isothiocyanato-phenylamino-thiocarbonyl)-lysyl]-quinolone-a], the figures for the IC50 in experiment [1], in experiment [2] and in experiment [3] were 0.2 µM, 0.1 µM and 0.1 µM, respectively.

On to `NCCCCC(NC(=S)Nc1ccc(C(=O)O)cc1)C(=O)NC1C=CCC2CN(c3c(F)cc4c(=O)c(C(=O)O)cn(C5CC5)c4c3Cl)CC21` (racemic) [2.9), N-[N^α-(4-Carboxy-phenylamino-thiocarbonyl)-lysyl]-quinolone-a], for which the IC50 is 2 µM in experiment [1], 2 µM in experiment [2] and 1 µM in experiment [3].

Consider `CN(C(=S)NC(CCCCN)C(=O)NC1C=CCC2CN(c3c(F)cc4c(=O)c(C(=O)O)cn(C5CC5)c4c3Cl)CC21)c1ccccc1` (racemic) [2.10), N-[N^α-(Phenyl-methyl-amino-thiocarbonyl)-lysyl]-quinolone-a], for which the figures for the IC50 in experiment [1], in experiment [2] and in experiment [3] were 2 µM, 2 µM and 0.4 µM, respectively.

`CC(NC(=O)C(CCCCN)NC(=S)Nc1ccc(O)cc1)C(=O)NC1C=CCC2CN(c3c(F)cc4c(=O)c(C(=O)O)cn(C5CC5)c4c3Cl)CC21` (racemic) [2.11), N-[N^α-(4-Hydroxy-phenylamino-thiocarbonyl)-lysyl-D-alanyl]-quinolone-a]: the IC50 is 60 µM in experiment [1], 150 µM in experiment [2] and 30 µM in experiment [3].

Consider `NCCCC[C@H](NC(=S)Nc1ccc(O)cc1)C(=O)Nc1ccc2c(c1)CN1C(=O)c3ccccc3C1=N2` [1.2), N-[N^α-(4-Hydroxy-phenylamino-thiocarbonyl)-lysyl]-batracylin], for which the values for the IC50 in experiment [1] and in experiment [2] were 25 µM and 40 µM, respectively.

`NC(CCCCNC(=S)Nc1ccc(O)cc1)C(=O)Nc1ccc2c(c1)CN1C(=O)c3ccccc3C1=N2` (centres unmarked) [1.3), N-[N^ε-(4-Hydroxy-phenylamino-thiocarbonyl)-lysyl]-batracylin]: the IC50 was 45 µM in experiment [1] and 70 µM in experiment [2].

Consider `C[C@@H](NC(=O)[C@H](CCCCN)NC(=S)Nc1ccc(O)cc1)C(=O)Nc1ccc2nc3n(c(=O)c2c1)Cc1ccccc1-3` [1.4), N-[N^α-(4-Hydroxy-phenylamino-thiocarbonyl)-lysyl-D-alanyl]-batracylin], for which the IC50 is 40 µM in experiment [1], 40 µM in experiment [2] and 30 µM in experiment [3].

For the compound `CC(NC(=O)C(CO)NC(=S)Nc1ccc(O)cc1)C(=O)Nc1ccc2c(c1)CN1C(=O)c3ccccc3C1=N2` [1.5), N-[N-(4-Hydroxy-phenylamino-thiocarbonyl)-seryl-D-alanyl]-batracylin], the IC50 in experiment [1] was determined as 250 µM; in experiment [2], 400 µM.

Take `CC(NC(=O)C(CCC(=O)O)NC(=S)Nc1ccc(O)cc1)C(=O)Nc1ccc2nc3n(c(=O)c2c1)Cc1ccccc1-3` [1.6), N-[N-(4-Hydroxy-phenylamino-thiocarbonyl)-glutamyl-D-alanyl]-batracylin]: the IC50 in experiment [1] came to 550 µM; in experiment [2] it was 800 µM.

As to `COc1cccc2c1C(=O)c1c(O)c3c(c(O)c1C2=O)C[C@@](O)(C(=O)CO)C[C@@H]3O[C@H]1C[C@H](NC(=O)C(C)NC(=O)C(CCCCN)NC(=S)Nc2ccc(O)cc2)[C@H](O)[C@H](C)O1` (stereo partly drawn) [3), N-[N^α-(4-Hydroxy-phenylamino-thiocarbonyl)-lysyl-alanyl]-doxorubicin], the values for the IC50 in experiment [1], in experiment [2] and in experiment [3] were 3 µM, 2 µM and 1 µM, respectively.

With `CC[C@@]1(OC(=O)C(C)NC(=O)C(CCCCN)NC(=S)Nc2ccc(O)cc2)C(=O)OCc2c1cc1n(c2=O)Cc2cc3ccccc3nc2-1` (stereo partly drawn) [4.1), 20-O-[N^α-(4-Hydroxy-phenylamino-thiocarbonyl)-lysyl-alanyl]-camptothecin], the IC50 was determined as 0.01 µM in experiment [1], 0.02 µM in experiment [2] and 0.1 µM in experiment [3].

Turning to `CCC1(OC(=O)C(CC(C)C)NC(=O)C(CCCCN)NC(=S)Nc2ccc(O)cc2)C(=O)OCc2c1cc1n(c2=O)Cc2cc3ccccc3nc2-1` (stereo not drawn) [4.2), 20-O-[N^α-(4-Hydroxy-phenylamino-thiocarbonyl)-lysyl-leucyl]-camptothecin, hydrochloride], the IC50 in experiment [1] is 0.07 µM; in experiment [2], 0.06 µM; in experiment [3] it was 0.3 µM.

As for `CCC1(OC(=O)C(Cc2ccccc2)NC(=O)C(CCCCN)NC(=S)Nc2ccc(O)cc2)C(=O)OCc2c1cc1n(c2=O)Cc2cc3ccccc3nc2-1` (stereo not drawn) [4.3), 20-O-[N^α-(4-Hydroxy-phenylamino-thiocarbonyl)-lysyl-phenyl-alanyl]-camptothecin], the values for the IC50 in experiment [1], in experiment [2] and in experiment [3] were 0.02 µM, 0.02 µM and 0.1 µM, respectively.

In the case of `CC[C@@]1(OC(=O)C(NC(=O)C(CCCCN)NC(=S)Nc2ccc(C(=O)O)cc2)C(C)C)C(=O)OCc2c1cc1n(c2=O)Cc2cc3ccccc3nc2-1` (stereo partly drawn) [4.5), 20-O-[N^α-(4-Carboxy-phenylamino-thiocarbonyl)-lysyl-valyl]-camptothecin, hydrochloride], the IC50 was 0.3 µM in experiment [1], 0.2 µM in experiment [2] and 0.8 µM in experiment [3].

Consider `CC[C@@]1(OC(=O)C(NC(=O)C(CCCCN)NC(=S)Nc2ccc(Cl)cc2)C(C)C)C(=O)OCc2c1cc1n(c2=O)Cc2cc3ccccc3nc2-1` (stereo partly drawn) [4.6), 20-O-[N^α-(4-Chloro-phenylamino-thiocarbonyl)-lysyl-valyl]-camptothecin, hydrochloride], for which the values for the IC50 in experiment [1], in experiment [2] and in experiment [3] were 0.2 µM, 0.15 µM and 0.5 µM, respectively.

In the case of `CC[C@@]1(OC(=O)[C@@H](NC(=O)[C@H](CCCCN)NC(=S)Nc2ccccc2)C(C)C)C(=O)OCc2c1cc1n(c2=O)Cc2cc3ccccc3nc2-1` [4.7), 20-O-[N^α-(Phenylamino-thiocarbonyl)-lysyl-valyl]-camptothecin, hydrochloride], the values for the 50% inhibitory concentration (IC50) in experiment [1], in experiment [2] and in experiment [3] were 0.1 µM, 0.06 µM and 0.3 µM, respectively.

For `CCC1(OC(=O)C(NC(=O)C(CCCCN)NC(=S)N(C)c2ccccc2)C(C)C)C(=O)OCc2c1cc1n(c2=O)Cc2cc3ccccc3nc2-1` (stereo not drawn) [4.8), 20-O-[N^α-(Phenyl-methyl-amino-thiocarbonyl)-lysyl-valyl]-camptothecin, hydrochloride], the IC50 in experiment [1] was determined as 0.3 µM; in experiment [2], 0.15 µM; in experiment [3], 0.8 µM.

Turning to `CCC1(OC(=O)[C@@H](C)NC(=O)C(CCCCNC(=S)Nc2ccc(O)cc2)NC(=S)Nc2ccc(O)cc2)C(=O)OCc2c1cc1n(c2=O)Cc2cc3ccccc3nc2-1` (stereo partly drawn) [4.10), 20-O-[N^α,N^ε-bis-(4-Hydroxy-phenylamino-thiocarbonyl)-lysyl-D-alanyl]-camptothecin], the IC50 came out at 0.02 µM in experiment [1], 0.01 µM in experiment [2] and 0.2 µM in experiment [3].

Take `CCC1(OC(=O)[C@H](Cc2ccccc2)NC(=O)[C@H](CCCCNC(=S)Nc2ccc(O)cc2)NC(=S)Nc2ccc(O)cc2)C(=O)OCc2c1cc1n(c2=O)Cc2cc3ccccc3nc2-1` (stereo partly drawn) [4.11), 20-O-[N^α,N^ε-bis-(4-Hydroxy-phenylamino-thiocarbonyl)-lysyl-phenylalanyl]-camptothecin]: the results for the IC50 in experiment [1], in experiment [2] and in experiment [3] were 0.06 µM, 0.03 µM and 0.2 µM, respectively.
